{
  "source": "ChEMBL document CHEMBL3885881",
  "about": "“DrugMatrix”",
  "species": "Rattus norvegicus",
  "test": "DrugMatrix - Regimen: Daily Repeat",
  "format": "toxicity, organism-based, Sprague-Dawley",
  "set-up": "regimen Daily Repeat, gender Male, age 6-8 weeks",
  "details": "in vivo, po, 1200 mg/kg, route oral GAVAGE, dose level High, vehicle .5 % CMC; for ABSOLUTE BASOPHIL / ABSOLUTE EOSINOPHIL / ABSOLUTE LYMPHOCYTE / ABSOLUTE MONOCYTE / ABSOLUTE SEGMENTED NEUTROPHIL / BASOPHIL / EOSINOPHIL / ERYTHROCYTE COUNT / HEMATOCRIT / HEMOGLOBIN / LEUKOCYTE COUNT / LYMPHOCYTE / MEAN CORPUSCULAR HEMOGLOBIN / MEAN CORPUSCULAR HEMOGLOBIN CONCENTRATION / MEAN CORPUSCULAR VOLUME / MONOCYTE / NEUTROPHIL / NUCLEATED RED BLOOD CELLS / PLATELET COUNT: tissue Blood",
  "key": {"[1]": {"details": "72 h, tissue Plasma, time 3 day"}, "[2]": {"details": "120 h, tissue Plasma, time 5 day"}},
  "data": [
    {"smiles": "Nc1ccc(Cl)cc1[N+](=O)[O-]", "note": "[4-CHLORO-2-NITROANILINE]", "values": [
      {"measurement": "ABSOLUTE BASOPHIL", "setting": "72 h, time 3 day", "value": 0, "unit": "CELLS/uL"},
      {"measurement": "ABSOLUTE EOSINOPHIL", "setting": "72 h, time 3 day", "value": 170.33, "unit": "CELLS/uL"},
      {"measurement": "ABSOLUTE LYMPHOCYTE", "setting": "72 h, time 3 day", "value": 8812.67, "unit": "CELLS/uL"},
      {"measurement": "ABSOLUTE MONOCYTE", "setting": "72 h, time 3 day", "value": 210.67, "unit": "CELLS/uL"},
      {"measurement": "ABSOLUTE SEGMENTED NEUTROPHIL", "setting": "72 h, time 3 day", "value": 673, "unit": "CELLS/uL"},
      {"measurement": "BASOPHIL", "setting": "72 h, time 3 day", "value": 0, "unit": "%"},
      {"measurement": "EOSINOPHIL", "setting": "72 h, time 3 day", "value": 1.67, "unit": "%"},
      {"measurement": "ERYTHROCYTE COUNT", "setting": "72 h, time 3 day", "value": 6.64, "unit": "x10E6/uL"},
      {"measurement": "HEMATOCRIT", "setting": "72 h, time 3 day", "value": 39.73, "unit": "%"},
      {"measurement": "HEMOGLOBIN", "setting": "72 h, time 3 day", "value": 14.83, "unit": "G/DL"},
      {"measurement": "LEUKOCYTE COUNT", "setting": "72 h, time 3 day", "value": 9.87, "unit": "x10E3/uL"},
      {"measurement": "LYMPHOCYTE", "setting": "72 h, time 3 day", "value": 89, "unit": "%"},
      {"measurement": "MEAN CORPUSCULAR HEMOGLOBIN", "setting": "72 h, time 3 day", "value": 22.33, "unit": "pg"},
      {"measurement": "MEAN CORPUSCULAR HEMOGLOBIN CONCENTRATION", "setting": "72 h, time 3 day", "value": 37.37, "unit": "G/DL"},
      {"measurement": "MEAN CORPUSCULAR VOLUME", "setting": "72 h, time 3 day", "value": 59.8, "unit": "fL"},
      {"measurement": "MONOCYTE", "setting": "72 h, time 3 day", "value": 2.33, "unit": "%"},
      {"measurement": "NEUTROPHIL", "setting": "72 h, time 3 day", "value": 7, "unit": "%"},
      {"measurement": "NUCLEATED RED BLOOD CELLS", "setting": "72 h, time 3 day", "value": "0.33 /100WBC"},
      {"measurement": "PLATELET COUNT", "setting": "72 h, time 3 day", "value": 873.33, "unit": "x10E3/uL"},
      {"measurement": "ALANINE AMINOTRANSFERASE", "setting": "[1]", "value": 82.67, "unit": "u/L"},
      {"measurement": "ALBUMIN", "setting": "[1]", "value": 4.53, "unit": "G/DL"},
      {"measurement": "ALKALINE PHOSPHATASE", "setting": "[1]", "value": 464.33, "unit": "u/L"},
      {"measurement": "ASPARTATE AMINOTRANSFERASE", "setting": "[1]", "value": 89.67, "unit": "u/L"},
      {"measurement": "BLOOD UREA NITROGEN", "setting": "[1]", "value": 17, "unit": "mg/dL"},
      {"measurement": "CARBON DIOXIDE", "setting": "[1]", "value": 36.67, "unit": "mmol/L"},
      {"measurement": "CHLORIDE", "setting": "[1]", "value": 100, "unit": "MEQ/L"},
      {"measurement": "CHOLESTEROL", "setting": "[1]", "value": 91.67, "unit": "mg/dL"},
      {"measurement": "CREATININE", "setting": "[1]", "value": 0.24, "unit": "mg/dL"},
      {"measurement": "GLUCOSE", "setting": "[1]", "value": 126.33, "unit": "mg/dL"},
      {"measurement": "LACTATE DEHYDROGENASE", "setting": "[1]", "value": 78.67, "unit": "u/L"},
      {"measurement": "LIPASE", "setting": "[1]", "value": 10, "unit": "u/L"},
      {"measurement": "PHOSPHORUS", "setting": "[1]", "value": 11.83, "unit": "mg/dL"},
      {"measurement": "POTASSIUM", "setting": "[1]", "value": 6.36, "unit": "MEQ/L"},
      {"measurement": "SODIUM", "setting": "[1]", "value": 147.57, "unit": "MEQ/L"},
      {"measurement": "TOTAL BILIRUBIN", "setting": "[1]", "value": 0.23, "unit": "mg/dL"},
      {"measurement": "TOTAL PROTEIN", "setting": "[1]", "value": 6.73, "unit": "G/DL"},
      {"measurement": "URIC ACID", "setting": "[1]", "value": 1.37, "unit": "mg/dL"},
      {"measurement": "ABSOLUTE BASOPHIL", "setting": "120 h, time 5 day", "value": 0, "unit": "CELLS/uL"},
      {"measurement": "ABSOLUTE EOSINOPHIL", "setting": "120 h, time 5 day", "value": 100.67, "unit": "CELLS/uL"},
      {"measurement": "ABSOLUTE LYMPHOCYTE", "setting": "120 h, time 5 day", "value": 9384, "unit": "CELLS/uL"},
      {"measurement": "ABSOLUTE MONOCYTE", "setting": "120 h, time 5 day", "value": 183, "unit": "CELLS/uL"},
      {"measurement": "ABSOLUTE SEGMENTED NEUTROPHIL", "setting": "120 h, time 5 day", "value": 1099, "unit": "CELLS/uL"},
      {"measurement": "BASOPHIL", "setting": "120 h, time 5 day", "value": 0, "unit": "%"},
      {"measurement": "EOSINOPHIL", "setting": "120 h, time 5 day", "value": 1, "unit": "%"},
      {"measurement": "ERYTHROCYTE COUNT", "setting": "120 h, time 5 day", "value": 6.3, "unit": "x10E6/uL"},
      {"measurement": "HEMATOCRIT", "setting": "120 h, time 5 day", "value": 37.27, "unit": "%"},
      {"measurement": "HEMOGLOBIN", "setting": "120 h, time 5 day", "value": 13.47, "unit": "G/DL"},
      {"measurement": "LEUKOCYTE COUNT", "setting": "120 h, time 5 day", "value": 10.77, "unit": "x10E3/uL"},
      {"measurement": "LYMPHOCYTE", "setting": "120 h, time 5 day", "value": 87, "unit": "%"},
      {"measurement": "MEAN CORPUSCULAR HEMOGLOBIN", "setting": "120 h, time 5 day", "value": 21.43, "unit": "pg"},
      {"measurement": "MEAN CORPUSCULAR HEMOGLOBIN CONCENTRATION", "setting": "120 h, time 5 day", "value": 36.17, "unit": "G/DL"},
      {"measurement": "MEAN CORPUSCULAR VOLUME", "setting": "120 h, time 5 day", "value": 59.17, "unit": "fL"},
      {"measurement": "MONOCYTE", "setting": "120 h, time 5 day", "value": 1.67, "unit": "%"},
      {"measurement": "NEUTROPHIL", "setting": "120 h, time 5 day", "value": 10.33, "unit": "%"},
      {"measurement": "NUCLEATED RED BLOOD CELLS", "setting": "120 h, time 5 day", "value": "0 /100WBC"},
      {"measurement": "PLATELET COUNT", "setting": "120 h, time 5 day", "value": 947, "unit": "x10E3/uL"},
      {"measurement": "ALANINE AMINOTRANSFERASE", "setting": "[2]", "value": 49, "unit": "u/L"},
      {"measurement": "ALBUMIN", "setting": "[2]", "value": 4.1, "unit": "G/DL"},
      {"measurement": "ALKALINE PHOSPHATASE", "setting": "[2]", "value": 387, "unit": "u/L"},
      {"measurement": "ASPARTATE AMINOTRANSFERASE", "setting": "[2]", "value": 69, "unit": "u/L"},
      {"measurement": "BLOOD UREA NITROGEN", "setting": "[2]", "value": 12.67, "unit": "mg/dL"},
      {"measurement": "CARBON DIOXIDE", "setting": "[2]", "value": 31, "unit": "mmol/L"},
      {"measurement": "CHLORIDE", "setting": "[2]", "value": 102.67, "unit": "MEQ/L"},
      {"measurement": "CHOLESTEROL", "setting": "[2]", "value": 97.33, "unit": "mg/dL"},
      {"measurement": "CREATININE", "setting": "[2]", "value": 0.18, "unit": "mg/dL"},
      {"measurement": "GLUCOSE", "setting": "[2]", "value": 126.33, "unit": "mg/dL"},
      {"measurement": "LACTATE DEHYDROGENASE", "setting": "[2]", "value": 87, "unit": "u/L"},
      {"measurement": "LIPASE", "setting": "[2]", "value": 10, "unit": "u/L"},
      {"measurement": "PHOSPHORUS", "setting": "[2]", "value": 12.2, "unit": "mg/dL"},
      {"measurement": "POTASSIUM", "setting": "[2]", "value": 7.1, "unit": "MEQ/L"},
      {"measurement": "SODIUM", "setting": "[2]", "value": 147.03, "unit": "MEQ/L"},
      {"measurement": "TOTAL BILIRUBIN", "setting": "[2]", "value": 0.23, "unit": "mg/dL"},
      {"measurement": "TOTAL PROTEIN", "setting": "[2]", "value": 6.2, "unit": "G/DL"}
    ]}
  ]
}
